Measured values taken from patent US10815213B2, “Bruton's tyrosine kinase inhibitors” (Pfizer Inc., priority 2013, dated 2020).

Assays:
[1] = target: human full-length BTK Kinase (Homo sapiens (Human), UniProt Q06187); experiment: Human BTK LanthaScreen Assay (TR-FRET); assay type: biochemical; conditions: 50 μM ATP, 70 pM BTK, 100 nM FAM-Srctide; run with and without 60 minutes pre-incubation (table does not say which); read-out: BTK Inhibition IC50
human EGFR kinase domain = human EGFR kinase domain (Homo sapiens (Human), UniProt P00533); experiment: Human EGFR LanthaScreen Selectivity Assay (TR-FRET); assay type: biochemical; conditions: 20 μM ATP, 600 pM EGFR kinase domain; run with and without 60 minutes pre-incubation
Chain of human EGFR kinase domain (P00533 712-979): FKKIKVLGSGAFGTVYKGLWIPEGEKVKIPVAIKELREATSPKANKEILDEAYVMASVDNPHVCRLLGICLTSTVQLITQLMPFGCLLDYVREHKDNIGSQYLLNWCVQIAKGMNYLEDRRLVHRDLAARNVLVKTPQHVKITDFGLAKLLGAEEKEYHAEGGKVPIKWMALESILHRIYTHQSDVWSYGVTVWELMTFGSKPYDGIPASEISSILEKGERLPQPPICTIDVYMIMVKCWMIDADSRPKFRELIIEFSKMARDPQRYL
Protocol: The kinase reaction mixtures were incubated at room temperature for 60 minutes before stopping the kinase activity by the addition of 15 mM EDTA. The extent of peptide phosphorylation by EGFR was detected using a Terbium-conjugated anti-phospho-Tyrosine antibody (Tb-PT66 antibody, Invitrogen # PV3557).

Human B cells = experiment: Human Primary B Cell Proliferation Assay; assay type: cell-based; conditions: 50 μg/mL anti-human IgM F(ab')2 for 72 hours, 3H-thymidine incorporation
Protocol: Human B cells were purified from buffy coats using the human B cell RosetteSep kit per manufacturer's instructions. Purified cells were resuspended in RPMI-10% HIFCS, 2 mM L-glutamine, 100 U/mL penicillin, 100 μg/ml streptomycin, incubated with compounds for 1 hour at 37° C. and then stimulated with 50 μg/mL anti-human IgM F(ab′)2 for 72 hours. ^3H-thymidine was included in the culture media for the final 8-16 hours. Cells were harvested and ^3H-thymidine incorporation was measured.

Chain of human full-length BTK Kinase (Q06187 whole entry, the tested form may be a part): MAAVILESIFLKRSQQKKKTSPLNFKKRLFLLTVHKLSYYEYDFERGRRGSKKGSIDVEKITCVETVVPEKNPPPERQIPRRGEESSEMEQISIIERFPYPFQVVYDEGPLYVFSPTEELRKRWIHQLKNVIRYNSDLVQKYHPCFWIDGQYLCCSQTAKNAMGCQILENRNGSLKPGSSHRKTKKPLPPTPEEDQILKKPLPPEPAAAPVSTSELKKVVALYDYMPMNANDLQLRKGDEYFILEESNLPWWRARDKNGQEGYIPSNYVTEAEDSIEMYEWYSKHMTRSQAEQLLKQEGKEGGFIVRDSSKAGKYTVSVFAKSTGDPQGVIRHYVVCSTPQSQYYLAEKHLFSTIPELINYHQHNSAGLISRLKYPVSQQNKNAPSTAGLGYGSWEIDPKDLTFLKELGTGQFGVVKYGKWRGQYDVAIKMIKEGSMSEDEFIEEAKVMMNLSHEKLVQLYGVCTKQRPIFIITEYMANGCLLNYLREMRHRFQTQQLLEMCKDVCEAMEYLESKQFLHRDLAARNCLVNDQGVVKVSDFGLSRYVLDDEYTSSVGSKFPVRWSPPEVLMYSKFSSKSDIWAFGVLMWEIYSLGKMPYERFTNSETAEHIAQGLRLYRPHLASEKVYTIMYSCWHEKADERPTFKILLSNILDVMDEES

SMILES	IC50 [1]	IC50 (human EGFR kinase domain)	IC50 (Human B cells)
NC(=O)c1c(-c2ccc(Oc3ccc(Cl)cc3)cc2)nn([C@@H]2CCCN(C(=O)/C=C/CO)C2)c1N [Example 131, 5-amino-3-[4-(4-chlorophenoxy)phenyl]-1-{(3R)-1-[(2E)-4-hydroxybut-2-enoyl]piperidin-3-yl}-1H-pyrazole-4-carboxamide]	2.3 nM	2200 nM	–
NC(=O)c1c(-c2ccc(Oc3ccc(Cl)cc3)cc2)nn([C@@H]2CCCN(C(=O)/C=C/CF)C2)c1N [Example 132, 5-amino-3-[4-(4-chlorophenoxy)phenyl]-1-{(3R)-1-[(2E)-4-fluorobut-2-enoyl]piperidin-3-yl}-1H-pyrazole-4-carboxamide]	1.1 nM	–	–
NC(=O)c1c(-c2ccc(Oc3ccc(F)cc3F)cc2)nn([C@@H]2CCCN(C(=O)/C=C/CF)C2)c1N [Example 145, 5-amino-3-[4-(2,4-difluorophenoxy)phenyl]-1-{(3R)-1-[(2E)-4-fluorobut-2-enoyl]piperidin-3-yl}-1H-pyrazole-4-carboxamide]	2.8 nM	2180 nM	–
NC(=O)c1c(-c2ccc(Oc3ccc(F)cc3F)cc2)nn([C@@H]2CCCN(C(=O)/C(F)=C/CO)C2)c1N [Example 146, 5-amino-3-[4-(2,4-difluorophenoxy)phenyl]-1-{(3R)-1-[(2Z)-2-fluoro-4-hydroxybut-2-enoyl]piperidin-3-yl}-1H-pyrazole-4-carboxamide]	48 nM	–	–
CC(C)(O)/C=C/C(=O)N1CCC[C@@H](n2nc(-c3ccc(Oc4ccc(F)cc4F)cc3)c(C(N)=O)c2N)C1 [Example 147, 5-amino-3-[4-(2,4-difluorophenoxy)phenyl]-1-{(3R)-1-[(2E)-4-hydroxy-4-methylpent-2-enoyl]piperidin-3-yl}-1H-pyrazole-4-carboxamide]	241 nM	–	–
C[C@H](O)/C=C/C(=O)N1CCC[C@@H](n2nc(-c3ccc(Oc4ccc(F)cc4F)cc3)c(C(N)=O)c2N)C1 [Example 148, 5-amino-3-[4-(2,4-difluorophenoxy)phenyl]-1-{(3R)-1-[(2E,4S)-4-hydroxypent-2-enoyl]piperidin-3-yl}-1H-pyrazole-4-carboxamide]	39 nM	–	–
C[C@@H](O)/C=C/C(=O)N1CCC[C@@H](n2nc(-c3ccc(Oc4ccc(F)cc4F)cc3)c(C(N)=O)c2N)C1 [Example 149, 5-amino-3-(4-(2,4-difluorophenoxy)phenyl)-1-((R)-1-((R,E)-4-hydroxypent-2-enoyl)piperidin-3-yl)-1H-pyrazole-4-carboxamide]	52 nM	–	–
NC(=O)c1c(-c2ccc(Oc3ccc(F)cc3F)cc2)nn([C@@H]2CCCN(C(=O)/C=C/CO)C2)c1N [Example 151, 5-amino-3-[4-(2,4-difluorophenoxy)phenyl]-1-{(3R)-1-[(2E)-4-hydroxybut-2-enoyl]-piperidin-3-yl}-1H-pyrazole-4-carboxamide]	2.3 nM	12100 nM	–
N#C/C=C/C(=O)N1CCC[C@@H](n2nc(-c3ccc(Oc4ccc(F)cc4F)cc3)c(C(N)=O)c2N)C1 [Example 152, 5-amino-1-{(3R)-1-[(2E)-3-cyanoprop-2-enoyl]piperidin-3-yl}-3-[4-(2,4-difluorophenoxy)phenyl]-1H-pyrazole-4-carboxamide]	1.5 nM	–	–
NC(=O)c1c(-c2ccc(Oc3ncc(Cl)cc3F)cc2)nn([C@@H]2CCCN(C(=O)/C=C/CO)C2)c1N [Example 154, 5-amino-3-{4-[(5-chloro-3-fluoropyridin-2-yl)oxy]phenyl}-1-{(3R)-1-[(2E)-4-hydroxybut-2-enoyl]piperidin-3-yl}-1H-pyrazole-4-carboxamide]	49 nM	–	–
NC(=O)c1c(-c2ccc(Oc3ncc(Cl)cc3F)cc2)nn([C@@H]2CCCN(C(=O)/C=C/C(F)F)C2)c1N [Example 155, 5-amino-3-{4-[(5-chloro-3-fluoropyridin-2-yl)oxy]phenyl}-1-{(3R)-1-[(2E)-4,4-difluorobut-2-enoyl]piperidin-3-yl}-1H-pyrazole-4-carboxamide]	0.7 nM	106 nM	2 nM
NC(=O)c1c(-c2ccc(Oc3ncc(Cl)cc3F)cc2)nn([C@@H]2CCCN(C(=O)/C=C/CF)C2)c1N [Example 156, 5-amino-3-{4-[(5-chloro-3-fluoropyridin-2-yl)oxy]phenyl}-1-{(3R)-1-[(2E)-4-fluorobut-2-enoyl]piperidin-3-yl}-1H-pyrazole-4-carboxamide]	1.4 nM	381 nM	–
